Active and inactive are the calls of the source. The rule behind the calls is not given here.
Experiments:
[1] = target: T1, 3',5'-cyclic-AMP phosphodiesterase 4D (Homo sapiens, UniProt Q08499); test: Inhibition of human PDE4D2 (86 to 413 residues) extracted from Escherichia coli BL21 cells using 3H-cAMP/3H-cGMP as substrate preincubated with compound for 15 mins followed by substrate addition by liquid scintillation counter
[2] = Metabolic stability in rat liver microsomes assessed as half life at 1 uM incubated upto 60 mins in presence of NADPH by LC-MS/MS analysis; assay type: ADME, Microsome
HaCaT [3] = test: Anti-psoriasis activity in M5-stimulated human HaCaT cells assessed as restoration of cAMP level at 20 uM incubated for 2 hrs by competitive ELISA; assay type: functional, cell-based
Mus musculus [4] = test: Anti-inflammatory activity in IMQ-induced psoriasis in female BALB/c mouse assessed as reduction in IL-1beta mRNA level at 20 mg/kg administered topically as 0.3 % ointment pretreated with IMQ for 6 hrs followed by compound addition once daily for 7 days by q-PCR analysis; assay type: functional, organism-based; conditions: time 7.0 day
Mus musculus [5] = test: Anti-inflammatory activity in IMQ-induced psoriasis in female BALB/c mouse assessed as reduction in CXCL-2 mRNA level at 20 mg/kg administered topically as 0.3 % ointment pretreated with IMQ for 6 hrs followed by compound addition once daily for 7 days by q-PCR analysis; assay type: functional, organism-based; conditions: time 7.0 day
Mus musculus [6] = test: Anti-inflammatory activity in IMQ-induced psoriasis in female BALB/c mouse assessed as reduction in CCL-20 mRNA level at 20 mg/kg administered topically as 0.3 % ointment pretreated with IMQ for 6 hrs followed by compound addition once daily for 7 days by q-PCR analysis; assay type: functional, organism-based; conditions: time 7.0 day
Mus musculus [7] = test: Anti-psoriasis effect in IMQ-induced female BALB/c mouse model assessed as reduced bleeding in dermal papilla layers at 20 mg/kg administered topically as 0.3 % ointment pretreated with IMQ for 6 hrs followed by compound addition once daily for 7 days by H and E staining based analysis; assay type: functional, organism-based; conditions: time 7.0 day
Mus musculus [8] = test: Anti-psoriasis effect in IMQ-induced female BALB/c mouse model assessed as reduction in abnormal rete ridges at 20 mg/kg administered topically as 0.3 % ointment pretreated with IMQ for 6 hrs followed by compound addition once daily for 7 days by H and E staining based analysis; assay type: functional, organism-based; conditions: time 7.0 day
Mus musculus [9] = test: Anti-inflammatory activity in IMQ-induced psoriasis in female BALB/c mouse assessed as reduction in IL-6 mRNA level at 20 mg/kg administered topically as 0.3 % ointment pretreated with IMQ for 6 hrs followed by compound addition once daily for 7 days by q-PCR analysis; assay type: functional, organism-based; conditions: time 7.0 day
Mus musculus [10] = test: Anti-inflammatory activity in IMQ-induced psoriasis in female BALB/c mouse assessed as reduction in TNF-alpha mRNA level at 20 mg/kg administered topically as 0.3 % ointment pretreated with IMQ for 6 hrs followed by compound addition once daily for 7 days by q-PCR analysis; assay type: functional, organism-based; conditions: time 7.0 day
Mus musculus [11] = test: Anti-psoriasis effect in IMQ-induced female BALB/c mouse model assessed as reduction in spinous layer thickness at 20 mg/kg administered topically as 0.3 % ointment pretreated with IMQ for 6 hrs followed by compound addition once daily for 7 days by H and E staining based analysis; assay type: functional, organism-based; conditions: time 7.0 day
HaCaT [12] = test: Inhibition of CREB phosphorylation in human HaCaT cells assessed as increase in pCREB/CREB ratio at 20 uM incubated for 2 hrs by Western blotting analysis; assay type: cell-based
Mus musculus [13] = test: Anti-inflammatory activity in IMQ-induced psoriasis in female BALB/c mouse assessed as reduction in IL-17 mRNA level at 20 mg/kg administered topically as 0.3 % ointment pretreated with IMQ for 6 hrs followed by compound addition once daily for 7 days by q-PCR analysis; assay type: functional, organism-based; conditions: time 7.0 day
Mus musculus [14] = test: Anti-psoriasis effect in IMQ-induced female BALB/c mouse model assessed as reduction in fibroblast proliferation at 20 mg/kg administered topically as 0.3 % ointment pretreated with IMQ for 6 hrs followed by compound addition once daily for 7 days by H and E staining based analysis; assay type: functional, organism-based; conditions: time 7.0 day
[15] = target: T1, 3',5'-cyclic-AMP phosphodiesterase 4D; test: Inhibition of PDE4D (unknown origin)

T1 sequence (Q08499 whole entry, the tested form may be a part): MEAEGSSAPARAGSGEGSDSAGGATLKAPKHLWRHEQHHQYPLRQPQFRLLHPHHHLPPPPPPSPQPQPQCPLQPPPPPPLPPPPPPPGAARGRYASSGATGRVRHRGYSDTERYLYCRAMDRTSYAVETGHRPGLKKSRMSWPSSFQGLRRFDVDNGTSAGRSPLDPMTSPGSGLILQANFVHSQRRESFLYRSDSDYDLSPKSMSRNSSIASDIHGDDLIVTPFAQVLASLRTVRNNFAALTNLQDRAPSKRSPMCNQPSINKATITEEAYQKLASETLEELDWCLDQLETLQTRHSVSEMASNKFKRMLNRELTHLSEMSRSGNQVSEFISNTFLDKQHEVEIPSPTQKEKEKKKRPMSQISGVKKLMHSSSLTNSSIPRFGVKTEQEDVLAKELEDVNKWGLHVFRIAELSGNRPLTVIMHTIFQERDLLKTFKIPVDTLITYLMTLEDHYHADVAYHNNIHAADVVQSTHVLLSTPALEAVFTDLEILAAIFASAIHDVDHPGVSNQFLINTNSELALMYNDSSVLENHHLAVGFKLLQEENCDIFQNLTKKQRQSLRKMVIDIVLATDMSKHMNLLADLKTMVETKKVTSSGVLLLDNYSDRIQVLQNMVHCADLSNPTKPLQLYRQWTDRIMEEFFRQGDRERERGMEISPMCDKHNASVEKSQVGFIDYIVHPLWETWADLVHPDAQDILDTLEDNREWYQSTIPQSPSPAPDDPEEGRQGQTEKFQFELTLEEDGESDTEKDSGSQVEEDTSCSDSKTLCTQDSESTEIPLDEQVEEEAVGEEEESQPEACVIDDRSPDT

Structure (SMILES) | IC50 [1] [nM] | half-life at 1 µM [2] [min] | also measured
CCOC(=O)CCCOc1c(O)ccc2cc(-c3ccc(OC(F)F)c(OCC4CC4)c3)oc12 | 22.7 | – | –
COC(=O)[C@H]1C[C@H](Oc2c(O)ccc3cc(-c4ccc(OC(F)F)c(OCC5CC5)c4)oc23)CN1 | 30 | 3.7 | –
N[C@@H](CCOc1c(O)ccc2cc(-c3ccc(OC(F)F)c(OCC4CC4)c3)oc12)C(=O)O | > 100 | – | –
COC(=O)[C@@H]1C[C@H](Oc2c(O)ccc3cc(-c4ccc(OC(F)F)c(OCC5CC5)c4)oc23)CN1 | 10.9 | 4 | –
O=C(O)CCCOc1c(O)ccc2cc(-c3ccc(OC(F)F)c(OCC4CC4)c3)oc12 | 22 | 1.2 | –
O=C(O)COc1c(O)ccc2cc(-c3ccc(OC(F)F)c(OCC4CC4)c3)oc12 | 23.7 | – | –
COC(=O)[C@@H](N)CCOc1c(O)ccc2cc(-c3ccc(OC(F)F)c(OCC4CC4)c3)oc12 | 29.5 | 4.8 | –
O=C(O)[C@@H]1C[C@@H](Oc2c(O)ccc3cc(-c4ccc(OC(F)F)c(OCC5CC5)c4)oc23)CN1 | > 100 | – | –
COC(=O)CCCCOc1c(O)ccc2cc(-c3ccc(OC(F)F)c(OCC4CC4)c3)oc12 | 23.5 | 3.6 | –
COC(=O)COc1c(O)ccc2cc(-c3ccc(OC(F)F)c(OCC4CC4)c3)oc12 | 39.1 | – | –
O=C(O)[C@@H]1C[C@H](Oc2c(O)ccc3cc(-c4ccc(OC(F)F)c(OCC5CC5)c4)oc23)CN1 | > 100 | – | –
COC(=O)[C@@H]1C[C@@H](Oc2c(O)ccc3cc(-c4ccc(OC(F)F)c(OCC5CC5)c4)oc23)CN1 | 43.7 | 3.4 | –
O=C(O)CCCCOc1c(O)ccc2cc(-c3ccc(OC(F)F)c(OCC4CC4)c3)oc12 | 20.6 | 92.4 | –
O=C(O)[C@H]1C[C@H](Oc2c(O)ccc3cc(-c4ccc(OC(F)F)c(OCC5CC5)c4)oc23)CN1 | > 100 | – | –
O=C(Nc1c(Cl)cncc1Cl)c1ccc(OC(F)F)c(OCC2CC2)c1 | – | – | Activity (HaCaT [3]): Active; Activity (Mus musculus [4]): Active; Activity (Mus musculus [5]): Active; Activity (Mus musculus [6]): Active; Activity (Mus musculus [7]): Active; Activity (Mus musculus [8]): Active; Activity (Mus musculus [9]): Active; Activity (Mus musculus [10]): Active; Activity (Mus musculus [11]): Active; inhibition (HaCaT [12]): Active; Activity (Mus musculus [13]): Active; Activity (Mus musculus [14]): Active
Oc1ccc2cc(-c3ccc(OC(F)F)c(OCC4CC4)c3)oc2c1O | 421 | 21 | IC50 [15]: 421 nM
COC(=O)CCCOc1c(O)ccc2cc(-c3ccc(OC(F)F)c(OCC4CC4)c3)oc12 | 14.4 | 0.7 | –
O=C(O)[C@H]1C[C@@H](Oc2c(O)ccc3cc(-c4ccc(OC(F)F)c(OCC5CC5)c4)oc23)CN1 | > 100 | – | –

From ChEMBL document CHEMBL6115031, “Structure-Based Optimization of Moracin M as Potent and Selective PDE4 Inhibitors with Antipsoriasis Effects” (J Med Chem, 2025)
